Results: patent publication US8263606B2 (Xenon Pharmaceuticals Inc., priority 2008, dated 2012)

Assays:
[1] = target: CYP3A4 (Homo sapiens, UniProt P08684); assay: Cytochrome P450 (CYP450) Inhibition Assay, CYP3A4 (Vivid fluorescence, BOMCC substrate); conditions: for inhibition at 10 µM: human, P450 Baculosomes (recombinant CYP3A4), probe BOMCC (Vivid substrate)
Chain of CYP3A4 (P08684 whole entry): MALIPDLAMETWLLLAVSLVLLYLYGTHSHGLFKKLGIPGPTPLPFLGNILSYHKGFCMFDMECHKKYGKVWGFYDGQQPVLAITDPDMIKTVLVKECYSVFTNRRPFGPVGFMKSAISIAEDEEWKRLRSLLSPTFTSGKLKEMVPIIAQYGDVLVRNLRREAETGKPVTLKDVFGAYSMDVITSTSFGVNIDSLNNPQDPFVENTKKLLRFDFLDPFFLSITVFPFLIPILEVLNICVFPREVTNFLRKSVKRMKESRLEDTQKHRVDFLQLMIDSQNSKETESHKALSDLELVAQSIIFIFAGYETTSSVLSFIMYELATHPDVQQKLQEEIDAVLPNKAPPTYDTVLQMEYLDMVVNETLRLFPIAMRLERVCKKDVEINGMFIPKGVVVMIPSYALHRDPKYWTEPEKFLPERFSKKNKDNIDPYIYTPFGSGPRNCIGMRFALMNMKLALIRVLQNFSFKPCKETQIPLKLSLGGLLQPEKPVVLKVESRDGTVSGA

SMILES	inhibition at 10 µM [1] [%]	melting point [°C]	% Inhibition of CYP3A4 ([1]; CYP3A4 isozyme, at 10 μM)
CN1C(=O)C2(COc3cc4c(cc32)OCCO4)c2c(-c3cc(O)[nH]n3)cccc21 (stereo not drawn) [Example 27, 4′-(5-hydroxy-1H-pyrazol-3-yl)-1′-methyl-2,3-dihydrospiro[furo[2,3-g][1,4]benzodioxine-8,3′-indol]-2′(1′H)-one]	< 50	> 250	–
Nc1cccc(CN2C(=O)C3(COc4cc5c(cc43)OCCO5)c3ccccc32)n1 (stereo not drawn) [Example 34, 1′-[(6-aminopyridin-2-yl)methyl]-2,3-dihydrospiro[furo[2,3-g][1,4]benzodioxine-8,3′-indol]-2′(1′H)-one]	> 50	240 to 241	–
Cl.O=C1N(Cc2ccccn2)c2ccccc2C12COc1cc3c(cc12)OCCO3 (stereo not drawn) [Example 4.42, 1′-(pyridin-2-ylmethyl)-2,3-dihydrospiro[furo[2,3-g][1,4]benzodioxine-8,3′-indol]-2′(1′H)-one hydrochloride]	–	206 to 208	A (percent inhibition of less than 50% at 10 μM)
O=C1N(Cc2cccc(C(F)(F)F)n2)c2ccccc2C12COc1cc3c(cc12)OCCO3 (stereo not drawn) [Example 5.9, 1′-{[6-(trifluoromethyl)pyridin-2-yl]methyl}-2,3-dihydrospiro[furo[2,3-g][1,4]benzodioxine-8,3′-indol]-2′(1′H)-one]	> 50	195 to 196	–

Continued, in another order:

inhibition at 10 µM [1] [%]	melting point [°C]	SMILES	% Inhibition of CYP3A4 ([1]; CYP3A4 isozyme, at 10 μM)
< 50	252 to 254	CN1C(=O)C2(COc3cc4c(cc32)OCCO4)c2c(N)cccc21 (stereo not drawn) [Example 16.19, 4′-amino-1′-methyl-2,3-dihydrospiro[furo[2,3-g][1,4]benzodioxine-8,3′-indol]-2′(1′H)-one]	–
> 50	154 to 155	CCCCCCNC(=O)Nc1cccc2c1C1(COc3cc4c(cc31)OCCO4)C(=O)N2C (stereo not drawn) [Example 16.35, 1-hexyl-3-(1′-methyl-2′-oxo-1′,2,2′,3-tetrahydrospiro[furo[2,3-g][1,4]benzodioxine-8,3′-indol]-4′-yl)urea]	–
< 50	234 to 236	CN1C(=O)C2(COc3cc4c(cc32)OCCO4)c2c(NC(=O)C3CCC3)cccc21 (stereo not drawn) [Example 16.20, N-(1′-methyl-2′-oxo-1′,2,2′,3-tetrahydrospiro[furo[2,3-g][1,4]benzodioxine-8,3′-indol]-4′-yl)cyclobutanecarboxamide]	–
> 50	55 to 58	COc1ccc(Oc2cccc3c2C2(COc4cc5c(cc42)OCCO5)C(=O)N3C)cc1 (stereo not drawn) [Example 16.84, 4′-(4-methoxyphenoxy)-1′-methyl-2,3-dihydrospiro[furo[2,3-g][1,4]benzodioxine-8,3′-indol]-2′(1′H)-one]	–
> 50	157 to 159	CN1C(=O)C2(COc3cc4c(cc32)OCCO4)c2c(OCc3ncccc3C(F)(F)F)cccc21 (stereo not drawn) [Example 16.58, 1′-methyl-4′-{[3-(trifluoromethyl)pyridin-2-yl]methoxy}-2,3-dihydrospiro[furo[2,3-g][1,4]benzodioxine-8,3′-indol]-2′(1′H)-one]	–
< 50	224 to 226	CCC(=O)Nc1cccc2c1C1(COc3cc4c(cc31)OCCO4)C(=O)N2C (stereo not drawn) [Example 16.29, N-(1′-methyl-2′-oxo-1′,2,2′,3-tetrahydrospiro[furo[2,3-g][1,4]benzodioxine-8,3′-indol]-4′-yl)propanamide]	–
< 50	220 to 222	CN1C(=O)C2(COc3cc4c(cc32)OCCO4)c2c(-c3cnn(C)c3)cccc21 (stereo not drawn) [Example 16.70, 1′-methyl-4′-(1-methyl-1H-pyrazol-4-yl)-2,3-dihydrospiro[furo[2,3-g][1,4]benzodioxine-8,3′-indol]-2′(1′H)-one]	–
> 50	230 to 231	O=C1Nc2cccc(-c3ccoc3)c2[C@]12COc1cc3c(cc12)OCO3 [Example 16.65, (7S)-4′-furan-3-ylspiro[furo[2,3-f][1,3]benzodioxole-7,3′-indol]-2′(1′H)-one]	–
